The text below walks through data of US20230203043A1, “NOVEL IMIDAZOPYRAZINE DERIVATIVES” (Hoffmann-La Roche Inc., priority 2020, published 2023).

Where a name gives a salt, the structure may show the parent alone. Read-outs that look alike come from different tables or passages of the source.

The test system of the assay is Acinetobacter baumannii ATCC17961. The experiment in a line: Antimicrobial susceptibility testing: 90% growth inhibitory concentration (IC90) determination in Iso-Sensitest broth, OD600 growth. The assay is classed as cell-based. An outline of the steps: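 OD600 read every 20 min for 16 h at 35±2° C; inhibition taken in log phase to derive IC90. Twofold, 10-point dilutions (e.g. 50–0.097 μM final), inoculum ~5×10^(5) CFU/ml.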

The mark [1] stands for this setting: Acinetobacter baumannii, ATCC17961, 16 h, strain ATCC 17961, OD600 growth over 16 h, read-out: A. baumannii ATCC 17961 IC90.
[2] abbreviates: Acinetobacter baumannii, ATCC17961, 16 h, read-out: A. baumannii ATCC 17961 IC90 (uM), strain ATCC 17961, OD600 growth over 16 h.
Setting [3] is: strain ATCC 17961, OD600 growth over 16 h, read-out: A. baumannii ATCC 17961 IC90.

`Cc1cc(Nc2nccn3c(-c4cn(CC(F)F)nc4C(F)(F)F)cnc23)cc(F)c1C(=O)NCCOCCN` [Example 49, N-[2-(2-aminoethoxy)ethyl]-4-[[3-[1-(2,2-difluoroethyl)-3-(trifluoromethyl)pyrazol-4-yl]imidazo[1,2-a]pyrazin-8-yl]amino]-2-fluoro-6-methylbenzamide]: the IC90 under setting [1] was found to be 0.12 µM.

Take `CCc1cc(Nc2nccn3c(-c4cn(C(CO)CCl)nc4C(F)(F)F)cnc23)ccc1C(=O)NCCOCCN` (stereo not drawn) [Example 278, N-[2-(2-aminoethoxy)ethyl]-4-[[3-[1-(1-chloro-3-hydroxypropan-2-yl)-3-(trifluoromethyl)pyrazol-4-yl]imidazo[1,2-a]pyrazin-8-yl]amino]-2-ethylbenzamide formate]: the IC90 under setting [2] was found to be 0.332 µM.

Turning to `CCc1cc(Nc2nccn3c(-c4cn(CC(F)F)nc4C(F)(F)F)cnc23)ccc1C(=O)NCCNC(=O)CN` [Example 611, N-(2-(2-aminoacetamido)ethyl)-4-((3-(1-(2,2-difluoroethyl)-3-(trifluoromethyl)-1H-pyrazol-4-yl)imidazo[1,2-a]pyrazin-8-yl)amino)-2-ethylbenzamide formate], under setting [2], the IC90 amounted to 0.11 µM.

In the case of `Cc1cc(Nc2nccn3c(-c4cn(CC(F)F)nc4C(F)(F)F)cnc23)cc(F)c1C(=O)N1CCN(C(=O)[C@H]2C[C@@H](N)C2)CC1` [Example 701, (4-((1s,3s)-3-aminocyclobutane-1-carbonyl)piperazin-1-yl)(4-((3-(1-(2,2-difluoroethyl)-3-(trifluoromethyl)-1H-pyrazol-4-yl)imidazo[1,2-a]pyrazin-8-yl)amino)-2-fluoro-6-methylphenyl)methanone], the concentration for an effect of 90% (IC90) under setting [1] is 0.382 µM.

With `Cc1cc(Nc2nccn3c(-c4cn(C)nc4C(F)(F)F)cnc23)ccc1C(=O)N1CCN(C(=O)[C@H]2C[C@H](O)CN2)CC1` [Example 476, formic acid; [4-[(2R,4S)-4-hydroxypyrrolidine-2-carbonyl]piperazin-1-yl]-[2-methyl-4-[[3-[1-methyl-3-(trifluoromethyl)pyrazol-4-yl]imidazo[1,2-a]pyrazin-8-yl]amino]phenyl]methanone], under setting [2], the 90% effect concentration (IC90) was found to be 2.01 µM.

`Cc1cc(Nc2nccn3c(-c4cn(C)nc4C(F)(F)F)cnc23)ccc1C(=O)N1CCN(C(=O)[C@@H]2CCNC[C@H]2O)CC1` [Example 477, formic acid; [4-[(3S,4R)-3-hydroxypiperidine-4-carbonyl]piperazin-1-yl]-[2-methyl-4-[[3-[1-methyl-3-(trifluoromethyl)pyrazol-4-yl]imidazo[1,2-a]pyrazin-8-yl]amino]phenyl]methanone]: under setting [2], the concentration for an effect of 90% (IC90) stood at 3.24 µM.

As to `O=C(NC1CCN(C(=O)c2ccc(Nc3nccn4c(-c5c[nH]nc5C(F)(F)F)cnc34)cc2Cl)CC1)C1CCNCC1` [Example 157, N-[1-[2-chloro-4-[[3-[3-(trifluoromethyl)-1H-pyrazol-4-yl]imidazo[1,2-a]pyrazin-8-yl]amino]benzoyl]piperidin-4-yl]piperidine-4-carboxamide], the IC90 under setting [1] came to 0.969 µM.

As for `CCc1cc(Nc2nccn3c(-c4cn(CC(O)CCO)nc4C(F)(F)F)cnc23)ccc1C(=O)NCCOCCN` (stereo not drawn) [Example 315, N-[2-(2-aminoethoxy)ethyl]-4-[[3-[1-(2,4-dihydroxybutyl)-3-(trifluoromethyl)pyrazol-4-yl]imidazo[1,2-a]pyrazin-8-yl]amino]-2-ethylbenzamide formate], the 90% effect concentration (IC90) under setting [2] was found to be 1.46 µM.

As to `Cc1cc(Nc2nccn3c(-c4cn(C)nc4C(F)(F)F)cnc23)ccc1C(=O)N1CCN(C(=O)N[C@@H]2CNC[C@H]2O)CC1` [Example 469, formic acid; N-[(3R,4R)-4-hydroxypyrrolidin-3-yl]-4-[2-methyl-4-[[3-[1-methyl-3-(trifluoromethyl)pyrazol-4-yl]imidazo[1,2-a]pyrazin-8-yl]amino]benzoyl]piperazine-1-carboxamide], the 90% effect concentration (IC90) under setting [2] was determined as 0.705 µM.

As for `CCc1cc(Nc2nccn3c(-c4c[nH]nc4C(F)(F)F)cnc23)ccc1C(=O)NCCNC(=O)[C@@H]1CCCN1` [Example 39, (2S)-N-[2-[[2-ethyl-4-[[3-[3-(trifluoromethyl)-1H-pyrazol-4-yl]imidazo[1,2-a]pyrazin-8-yl]amino]benzoyl]amino]ethyl] pyrrolidine-2-carboxamide], under setting [1], the IC90 came to 0.47 µM.

On to `CCc1cc(Nc2nccn3c(-c4c[nH]nc4C(F)(F)F)cnc23)ccc1C(=O)NCC(=O)N1CCC(N)CC1` [Example 756, N-[2-(4-amino-1-piperidyl)-2-oxo-ethyl]-2-ethyl-4-[[3-[3-(trifluoromethyl)-1H-pyrazol-4-yl]imidazo[1,2-a]pyrazin-8-yl]amino]benzamide formate], for which, under setting [2], the IC90 was found to be 0.679 µM.

In the case of `N#CCn1cc(-c2cnc3c(Nc4ccc(C(=O)N5CCN(C(=O)[C@H]6CC[C@@H](N)C6)CC5)c(F)c4)nccn23)c(C(F)(F)F)n1` [Example 807, 2-(4-(8-((4-(4-((1S,3R)-3-aminocyclo-pentane-1-carbonyl)piperazin-1-carbonyl)-3-fluorophenyl)amino)imidazo [1,2-a]pyrazin-3-yl)-3-(trifluoromethyl)-1H-pyrazol-1-yl)acetonitrile hydrochloride], under setting [1], the IC90 amounted to 0.31 µM.

In the case of `CCc1cc(Nc2nccn3c(-c4cn(CC(F)F)nc4C(F)(F)F)cnc23)ccc1C(=O)NCC(=O)N1CC[C@@H](N)C1` [Example 687, N-[2-[(3R)-3-aminopyrrolidin-1-yl]-2-oxo-ethyl]-4-[[3-[1-(2,2-difluoroethyl)-3-(trifluoromethyl)pyrazol-4-yl]imidazo[1,2-a]pyrazin-8-yl]amino]-2-ethyl-benzamideformate], the concentration for an effect of 90% (IC90) under setting [1] was determined as 0.345 µM.

In the case of `CCc1cc(Nc2nccn3c(-c4cn(CC#N)nc4C(F)(F)F)cnc23)ccc1C(=O)N1CCNCC1` [Example 260, 2-[4-[8-[3-ethyl-4-(piperazine-1-carbonyl)anilino]imidazo[1,2-a]pyrazin-3-yl]-3-(trifluoromethyl)pyrazol-1-yl]acetonitrile formate], under setting [2], the 90% effect concentration (IC90) came out at 0.519 µM.

For the molecule `CCc1cc(Nc2nccn3c(-c4cn(CC#N)nc4C(F)(F)F)cnc23)ccc1C(=O)NCC(=O)NC1C2CNCC21` (stereo not drawn) [Example 511, N-[2-(3-azabicyclo[3.1.0]hexan-6-ylamino)-2-oxo-ethyl]-4-[[3-[1-(cyanomethyl)-3-(trifluoromethyl)pyrazol-4-yl]imidazo[1,2-a]pyrazin-8-yl]amino]-2-ethyl-benzamide formate], the 90% effect concentration (IC90) under setting [2] was determined as 0.295 µM.

Regarding `CNC(=O)c1ccc(Nc2nccn3c(-c4cn(C(F)F)nc4C(F)(F)F)cnc23)cc1Cl` [Example 10, 2-chloro-4-[[3-[1-(difluoromethyl)-3-(trifluoromethyl)pyrazol-4-yl]imidazo[1,2-a]pyrazin-8-yl]amino]-N-methylbenzamide], the concentration for an effect of 90% (IC90) under setting [1] is 0.458 µM.

With `CCc1cc(Nc2nccn3c(-c4cn(CC#N)nc4C(F)(F)F)cnc23)ccc1C(=O)NCC(=O)NCC1CCNC1` (stereo not drawn) [Example 523, 4-[[3-[1-(cyanomethyl)-3-(trifluoromethyl)pyrazol-4-yl]imidazo[1,2-a]pyrazin-8-yl]amino]-2-ethyl-N-[2-oxo-2-(pyrrolidin-3-ylmethylamino)ethyl] benzamide formate], the IC90 under setting [1] is 0.313 µM.

Consider `O=C(c1ccc(Nc2nccn3c(-c4cn(CC(F)F)nc4C(F)(F)F)cnc23)cc1Cl)N1CCN(C(=O)[C@@H]2CCCN2)CC1` [Example 115, [2-chloro-4-[[3-[1-(2,2-difluoroethyl)-3-(trifluoromethyl)pyrazol-4-yl]imidazo[1,2-a]pyrazin-8-yl]amino]phenyl]-[4-[(2S)-pyrrolidine-2-carbonyl]piperazin-1-yl]methanone], for which the IC90 under setting [1] came out at 0.251 µM.

Turning to “(3-aminoazetidin- 1-yl)-[2-chloro-4- [[3-[1-(2,2- difluoroethyl)-3- pyrazol-4- yl]imidazo[1,2- a]pyrazin-8- yl]amino]phenyl] methanone [Example 101]”, the 90% effect concentration (IC90) under setting [3] worked out at 0.138 µM.

Take `Cn1ccc(Cn2cc(-c3cnc4c(Nc5ccc(C(=O)N6CCNCC6)c(Cl)c5)nccn34)c(C(F)(F)F)n2)n1` [Example 183, [2-chloro-4-[[3-[1-[(1-methylpyrazol-3-yl)methyl]-3-(trifluoromethyl)pyrazol-4-yl]imidazo[1,2-a]pyrazin-8-yl]amino]phenyl]-piperazin-1-ylmethanone formate]: the concentration for an effect of 90% (IC90) under setting [2] came out at 0.372 µM.

`CCc1cc(Nc2nccn3c(-c4c[nH]nc4C(F)(F)F)cnc23)ccc1C(=O)NC1CC2(CNC2)C1` [Example 514, 2-ethyl-N-(2-azaspiro[3.3]heptan-6-yl)-4-((3-(3-(trifluoromethyl)-1H-pyrazol-4-yl)imidazo[1,2-a]pyrazin-8-yl)amino)benzamide formate]: under setting [2], the IC90 was 0.803 µM.

For `N#CCn1cc(-c2cnc3c(Nc4ccc(C(=O)N5CCC(NC(=O)N[C@H]6CCNC6)CC5)c(Cl)c4)nccn23)c(C(F)(F)F)n1` [Example 11, 1-[1-[2-chloro-4-[[3-[1-(cyanomethyl)-3-(trifluoromethyl)pyrazol-4-yl]imidazo[1,2-a]pyrazin-8-yl]amino]benzoyl]piperidin-4-yl]-3-[(3S)-pyrrolidin-3-yl]urea], the concentration for an effect of 90% (IC90) under setting [1] came to 0.204 µM.

Regarding `C#CCNC(=O)c1c(C)cc(Nc2nccn3c(-c4cn(CC=C)nc4C(F)(F)F)cnc23)cc1F` [Example 41, 2-fluoro-6-methyl-4-[[3-[1-prop-2-enyl-3-(trifluoromethyl)pyrazol-4-yl]imidazo[1,2-a]pyrazin-8-yl]amino]-N-prop-2-ynylbenzamide], under setting [1], the IC90 turned out to be 0.254 µM.

On to `NC1CCC(NC(=O)N2CCN(C(=O)c3ccc(Nc4nccn5c(-c6c[nH]nc6C(F)(F)F)cnc45)cc3Cl)CC2)CC1` (stereo not drawn) [Example 291, N-(4-aminocyclohexyl)-4-[2-chloro-4-[[3-[3-(trifluoromethyl)-1H-pyrazol-4-yl]imidazo[1,2-a]pyrazin-8-yl]amino]benzoyl] piperazine-1-carboxamide formate], for which the IC90 under setting [3] is 0.332 µM.

By IC90 is commonly meant the concentration at which the effect reaches the 90% level.
